Experimental data as given in patent EP3153160A1, “USE OF XANTHOPHYLLS FOR THE TREATMENT OF CANCERS” (Lu, Chuen Wei, priority 2015, dated 2017).

What was measured:
Assay type in all cases: cell-based
M059K = M059K cell growth, cell counting; conditions: 100, 200 or 400 µM astaxanthin for 24 hours or 48 hours, cell numbers counted, vs DMSO; Figure 6
Procedure: (§1) Human U87MG (ATCC, ATCC® HTB-14™) cell line was grown in DMEM medium supplemented with 10% fetal bovine serum at 37°C in a humidified atmosphere at 5% CO2. M059K (ATCC, ATCC® CRL-2365™) and M059J (ATCC, ATCC® CRL-2366™) cell lines were grown in Dulbecco's modified Eagle medium (DMEM)-F12 supplemented with 10% fetal bovine serum at 37°C in a humidified atmosphere at 5% CO2.
(§2) Astaxanthin was dissolved in dimethyl sulfoxide (DMSO) at concentration of 20 mM as stock solution.
(§3) The U87MG, M059K, and M059J cell lines were treated with DMSO or 100, 200 or 400 µM of astaxanthin for 24 hours or 48 hours and cell numbers were counted.

Human U2OS = test: U2OS cell growth, cell counting; conditions: 100, 200 or 400 µM astaxanthin for 72 hours, cell numbers counted, vs DMSO; Figure 8
Procedure: Human U2OS (ATCC, ATCC® HTB-96™) cell line was grown in DMEM medium supplemented with 10% fetal bovine serum at 37°C in a humidified atmosphere at 5% CO2.
as §2
The U2OS cell line was treated with DMSO or 100, 200 or 400 µM of astaxanthin for 72 hours and cell numbers were counted.

Human U87MG [1] = test: MTT assay of U87MG cell viability; conditions: DMSO or different concentrations of astaxanthin, Figures 5A and 5B
Procedure: (§4) Cells were washed with PBS after the treatment, followed by addition of 1 ml MTT (3-(4,5-cimethylthiazol-2-yl)-2,5-diphenyl tetrazolium bromide) solution (2 mg/ml in PBS) in each well. After incubation for 3 hours at 37°C, 2 ml of DMSO was added and cells were incubated in the dark for 30 minutes. Absorbance was measured at the wavelength of 570 nm (OD570).
as §1, §2, §3

[2] = test system: Mouse adrenocortical Y1 cell line; test: Y1 cell growth, cell counting; conditions: 40 µM astaxanthin, 1, 2 or 3 days of treatment, compared with control (DMSO treated) group; Figures 1 and 2
Procedure: (§5) Mouse adrenocortical Y1 cell line (ATCC, ATCC® CCL-79™) was grown in Dulbecco's modified Eagle medium (DMEM)-F12 supplemented with 10% fetal bovine serum at 37°C in a humidified atmosphere at 5% CO2.
(§6) Astaxanthin (Model NO: ATP-9601A; Yuan Yu Bio-Tech (Taiwan), Co., Ltd) was dissolved in dimethyl sulfoxide (DMSO) at concentration of 20 mM as stock solution.
(§7) The Y1 cells were incubated with DMSO or 40 µM of astaxanthin for 1, 2 or 3 days before analysis.

M059J = M059J cell growth, cell counting; conditions: 100, 200 or 400 µM astaxanthin for 24 hours or 48 hours, cell numbers counted, vs DMSO; Figure 7
Procedure: as §1, §2, §3

Human U87MG [3] = test: U87MG cell growth, cell counting; conditions: 100, 200 or 400 µM astaxanthin for 24 hours or 48 hours, cell numbers counted, vs DMSO; Figure 4
Procedure: as §1, §2, §3

[4] = test system: Mouse adrenocortical Y1 cell line; test: MTT assay of Y1 cell viability; conditions: Y1 cells, 40 µM astaxanthin for 48 hours, compared with DMSO treated group, Fig. 3
Procedure: as §5, §6, §7, §4

Which results are given for `CC1=C(/C=C/C(C)=C/C=C/C(C)=C/C=C/C=C(C)/C=C/C=C(C)/C=C/C2=C(C)C(=O)C(O)CC2(C)C)C(C)(C)CC(O)C1=O` (stereo not shown) [astaxanthin, Astaxanthin]?
M059K cell growth (M059K): inhibited; U2OS cell growth (Human U2OS): inhibited U2OS cell growth in a dose-dependent manner; viability of U87MG cells (Human U87MG [1]): reduced; number of Y1 cells [2]: reduced; M059J cell growth (M059J): inhibited; U87MG cell growth (Human U87MG [3]): inhibited U87MG cell growth in a dose-dependent and time-dependent manner; OD570 [4]: reduced
